Assay results as given in patent publication US8822451B2, “Modulators of ATP-binding cassette transporters” (Vertex Pharmaceuticals Incorporated, priority 2005, dated 2014).
pEC50: −log10 of the molar value.

Biological target: T1, […]F508-CFTR (Homo sapiens, UniProt P13569, DEL508-508)
T1 construct: expressed in transfected cells
Test: Assay results of Table 3: ΔF508-CFTR modulation, membrane potential optical assay (assay format not stated)
Type: cell-based
Details: NIH3T3 mouse fibroblasts stably expressing […]F508-CFTR (optical assays); for Efficacy: efficacy range; for pEC50: potency range
Text: A. Membrane Potential Optical Methods for Assaying […]F508-CFTR Modulation Properties of Compounds
The optical membrane potential assay utilized voltage-sensitive FRET sensors described by Gonzalez and Tsien (See, Gonzalez, J. E. and R. Y. Tsien (1995) “Voltage sensing by fluorescence resonance energy transfer in single cells” Biophys J 69(4): 1272-80, and Gonzalez, J. E. and R. Y. Tsien (1997) “Improved indicators of cell membrane potential that use fluorescence resonance energy transfer” Chem Biol 4(4): 269-77) in combination with instrumentation for measuring fluorescence changes such as the Voltage/Ion Probe Reader (VIPR) (See, Gonzalez, J. E., K. Oades, et al. (1999) “Cell-based assays and instrumentation for screening ion-channel targets” Drug Discov Today 4(9): 431-439).
These voltage sensitive assays are based on the change in fluorescence resonant energy transfer (FRET) between the membrane-soluble, voltage-sensitive dye, DiSBAC2(3), and a fluorescent phospholipid, CC2-DMPE, which is attached to the outer leaflet of the plasma membrane and acts as a FRET donor. Changes in membrane potential (Vm) cause the negatively charged DiSBAC2(3) to redistribute across the plasma membrane and the amount of energy transfer from CC2-DMPE changes accordingly. The changes in fluorescence emission were monitored using VIPR™ II, which is an integrated liquid handler and fluorescent detector designed to conduct cell-based screens in 96- or 384-well microtiter plates.
To identify small molecules that correct the trafficking defect associated with ΔF508-CFTR; a single-addition HTS assay format was developed. The cells were incubated in serum-free medium for 16 hrs at 37° C. in the presence or absence (negative control) of test compound. As a positive control, cells plated in 384-well plates were incubated for 16 hrs at 27° C. to “temperature-correct” […]F508-CFTR. The cells were subsequently rinsed 3× with Krebs Ringers solution and loaded with the voltage-sensitive dyes. To activate […]F508-CFTR, 10 µM forskolin and the CFTR potentiator, genistein (20 µM), were added along with Cl^−-free medium to each well. The addition of Cl^−-free medium promoted Cl^− efflux in response to […]F508-CFTR activation and the resulting membrane depolarization was optically monitored using the FRET-based voltage-sensor dyes.
To identify potentiators of […]F508-CFTR, a double-addition HTS assay format was developed. During the first addition, a Cl^−-free medium with or without test compound was added to each well. After 22 sec, a second addition of Cl^−-free medium containing 2-10 µM forskolin was added to activate […]F508-CFTR. The extracellular Cl^− concentration following both additions was 28 mM, which promoted Cl^− efflux in response to […]F508-CFTR activation and the resulting membrane depolarization was optically monitored using the FRET-based voltage-sensor dyes.
Bath Solution #1: (in mM) NaCl 160, KCl 4.5, CaCl2 2, MgCl2 1, HEPES 10, pH 7.4 with NaOH.
Chloride-free bath solution: Chloride salts in Bath Solution #1 are substituted with gluconate salts.
CC2-DMPE: Prepared as a 10 mM stock solution in DMSO and stored at −20° C.
DiSBAC2(3): Prepared as a 10 mM stock in DMSO and stored at −20° C.
NIH3T3 mouse fibroblasts stably expressing […]F508-CFTR are used for optical measurements of membrane potential. The cells are maintained at 37° C. in 5% CO2 and 90% humidity in Dulbecco's modified Eagle's medium supplemented with 2 mM glutamine, 10% fetal bovine serum, 1× NEAA, […]-ME, 1× pen/strep, and 25 mM HEPES in 175 cm^2 culture flasks. For all optical assays, the cells were seeded at 30,000/well in 384-well matrigel-coated plates and cultured for 2 hrs at 37° C. before culturing at 27° C. for 24 hrs for the potentiator assay. For the correction assays, the cells are cultured at 27° C. or 37° C. with and without compounds for 16-24 hoursB.

T1 sequence (P13569 with tags, fused parts or gaps DEL508-508): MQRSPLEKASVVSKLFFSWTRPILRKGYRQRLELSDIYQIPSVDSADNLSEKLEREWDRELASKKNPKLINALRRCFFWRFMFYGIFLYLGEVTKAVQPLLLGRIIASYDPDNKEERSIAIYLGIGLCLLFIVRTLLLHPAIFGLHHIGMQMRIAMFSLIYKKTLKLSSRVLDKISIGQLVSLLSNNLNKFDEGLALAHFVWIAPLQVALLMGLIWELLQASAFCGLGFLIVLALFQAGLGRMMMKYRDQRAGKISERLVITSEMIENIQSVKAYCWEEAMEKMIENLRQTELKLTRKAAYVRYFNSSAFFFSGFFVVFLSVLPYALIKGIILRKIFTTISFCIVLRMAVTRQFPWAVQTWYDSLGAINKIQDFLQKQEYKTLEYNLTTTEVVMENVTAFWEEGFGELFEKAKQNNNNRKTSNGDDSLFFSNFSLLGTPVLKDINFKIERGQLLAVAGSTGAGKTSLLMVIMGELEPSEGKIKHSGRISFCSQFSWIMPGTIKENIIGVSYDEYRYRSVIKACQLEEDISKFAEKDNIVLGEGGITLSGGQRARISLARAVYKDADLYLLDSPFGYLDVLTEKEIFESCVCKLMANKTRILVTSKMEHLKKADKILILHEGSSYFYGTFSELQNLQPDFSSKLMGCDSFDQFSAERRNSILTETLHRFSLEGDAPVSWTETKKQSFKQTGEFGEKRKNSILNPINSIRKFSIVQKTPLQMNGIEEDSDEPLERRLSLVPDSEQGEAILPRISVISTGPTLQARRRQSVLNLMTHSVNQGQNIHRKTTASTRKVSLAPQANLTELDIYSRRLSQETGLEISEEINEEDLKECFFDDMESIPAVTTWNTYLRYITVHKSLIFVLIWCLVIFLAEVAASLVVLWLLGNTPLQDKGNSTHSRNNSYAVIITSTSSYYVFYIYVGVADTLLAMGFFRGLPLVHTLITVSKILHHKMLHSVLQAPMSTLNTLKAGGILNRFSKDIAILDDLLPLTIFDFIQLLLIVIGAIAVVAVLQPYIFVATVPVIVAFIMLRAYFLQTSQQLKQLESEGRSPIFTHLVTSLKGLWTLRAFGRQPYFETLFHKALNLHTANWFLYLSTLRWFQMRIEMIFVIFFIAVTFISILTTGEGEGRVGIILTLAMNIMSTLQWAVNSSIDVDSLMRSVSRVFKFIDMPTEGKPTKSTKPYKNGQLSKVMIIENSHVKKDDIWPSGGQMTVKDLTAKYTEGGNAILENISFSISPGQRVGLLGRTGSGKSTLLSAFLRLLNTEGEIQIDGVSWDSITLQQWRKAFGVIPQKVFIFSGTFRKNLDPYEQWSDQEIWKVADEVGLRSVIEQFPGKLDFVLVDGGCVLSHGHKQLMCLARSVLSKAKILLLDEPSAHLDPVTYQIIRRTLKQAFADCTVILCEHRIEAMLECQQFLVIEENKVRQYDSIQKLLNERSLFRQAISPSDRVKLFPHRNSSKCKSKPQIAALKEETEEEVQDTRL

Compound	Efficacy	pEC50
CN(C)C(=O)c1cc(-c2ccccc2)nc(N2CCCCC2)n1 [Compound 222]	++ (++ corresponds to Efficacy between 100 and 50)	< 5.30
CCN(CC)c1nc(C(N)=O)cc(-c2cccc(Cl)c2)n1 [Compound 98]	+++ (+++ corresponds to Efficacy greater than 100)	> 6.00
COc1ccc(-c2cc(C(N)=O)nc(N3CCCCC3)n2)c(OC)c1 [Compound 65]	++ (++ corresponds to Efficacy between 100 and 50)	< 5.30
CN(CC(O)c1ccccc1)c1nc(C(N)=O)cc(-c2ccccc2)n1 (centres unmarked) [Compound 101]	+++ (+++ corresponds to Efficacy greater than 100)	< 5.30
NC(=O)c1cc(-c2ccccc2)nc(N2CCC(O)(Cc3ccccc3)CC2)n1 [Compound 143]	+ (+ corresponds to Efficacy less than 50)	< 5.30
CNC(=O)c1cc(-c2ccccc2)nc(N2CCCCCC2)n1 [Compound 36]	+ (+ corresponds to Efficacy less than 50)	5.30 to 6.00
CCN(CCO)c1nc(C(N)=O)cc(-c2ccccc2)n1 [Compound 4]	+++ (+++ corresponds to Efficacy greater than 100)	< 5.30
NC(=O)c1cc(-c2cc(Cl)cc(Cl)c2)nc(N2CCCCC2)n1 [Compound 199]	++ (++ corresponds to Efficacy between 100 and 50)	5.30 to 6.00
CCCN(CC1CC1)c1nc(C(N)=O)cc(-c2ccccc2OC)n1 [Compound 39]	+++ (+++ corresponds to Efficacy greater than 100)	< 5.30
COc1ccc(-c2cc(C(N)=O)nc(NCc3ccco3)n2)cc1 [Compound 176]	++ (++ corresponds to Efficacy between 100 and 50)	< 5.30
NC(=O)c1cc(-c2ccccc2)nc(N2CCC(O)(c3ccc(Cl)cc3)CC2)n1 [Compound 42]	+ (+ corresponds to Efficacy less than 50)	< 5.30
CCN(CC)c1nc(C(N)=O)cc(-c2cccc(F)c2)n1 [Compound 160]	++ (++ corresponds to Efficacy between 100 and 50)	< 5.30
NC(=O)c1cc(-c2ccoc2)nc(N2CCCCC2)n1 [Compound 25]	+ (+ corresponds to Efficacy less than 50)	< 5.30
N#CC1(c2ccccc2)CCN(c2nc(C(N)=O)cc(-c3ccccc3)n2)CC1 [Compound 180]	++ (++ corresponds to Efficacy between 100 and 50)	< 5.30
COc1ccc(C2(CNc3nc(C(N)=O)cc(-c4ccccc4)n3)CC2)cc1OC [Compound 132]	+++ (+++ corresponds to Efficacy greater than 100)	< 5.30
COc1ccc(-c2cc(C(N)=O)nc(N(C)C)n2)cc1 [Compound 31]	+ (+ corresponds to Efficacy less than 50)	< 5.30
CC(C)CN(C)c1nc(C(N)=O)cc(-c2ccccc2)n1 [Compound 159]	+++ (+++ corresponds to Efficacy greater than 100)	5.30 to 6.00
NC(=O)c1cc(-c2ccccc2)nc(N2CCC3(CC2)OCCO3)n1 [Compound 44]	++ (++ corresponds to Efficacy between 100 and 50)	< 5.30
CCOc1cccc(-c2cc(C(N)=O)nc(N3CCCCC3)n2)c1 [Compound 194]	+++ (+++ corresponds to Efficacy greater than 100)	5.30 to 6.00
COc1cc2c(cc1OC)CN(c1nc(C(N)=O)cc(-c3ccccc3)n1)CC2 [Compound 49]	++ (++ corresponds to Efficacy between 100 and 50)	< 5.30
NC(=O)c1cc(-c2ccccc2)nc(N2CCSC2)n1 [Compound 169]	+++ (+++ corresponds to Efficacy greater than 100)	< 5.30
CCOc1ccc(-c2cc(C(N)=O)nc(N(CC)CC)n2)cc1 [Compound 20]	++ (++ corresponds to Efficacy between 100 and 50)	> 6.00

Compound	Efficacy	pEC50
CCCNc1nc(C(N)=O)cc(-c2ccccc2)n1 [Compound 30]	++ (++ corresponds to Efficacy between 100 and 50)	< 5.30
CCCN(CCC)c1nc(C(N)=O)cc(-c2ccccc2)n1 [Compound 23]	++ (++ corresponds to Efficacy between 100 and 50)	5.30 to 6.00
CCCCN(CC)c1nc(C(N)=O)cc(-c2ccccc2)n1 [Compound 121]	+++ (+++ corresponds to Efficacy greater than 100)	5.30 to 6.00
CN(CCc1ccccc1)c1nc(C(N)=O)cc(-c2ccccc2)n1 [Compound 38]	+++ (+++ corresponds to Efficacy greater than 100)	5.30 to 6.00
CCN(CC)c1nc(C(N)=O)cc(-c2cc(Cl)ccc2Cl)n1 [Compound 225]	+++ (+++ corresponds to Efficacy greater than 100)	> 6.00
CCN(CC)c1nc(C(N)=O)cc(-c2cc(C)cs2)n1 [Compound 66]	+++ (+++ corresponds to Efficacy greater than 100)	> 6.00
COc1cccc(-c2cc(C(N)=O)nc(N3CC=CCC3)n2)c1 [Compound 15]	++ (++ corresponds to Efficacy between 100 and 50)	< 5.30
CCN(CC)C(=O)C1CCCN(c2nc(C(N)=O)cc(-c3ccccc3)n2)C1 (centres unmarked) [Compound 177]	++ (++ corresponds to Efficacy between 100 and 50)	< 5.30
CCOCCN(CCOCC)c1nc(C(N)=O)cc(-c2ccccc2)n1 [Compound 190]	++ (++ corresponds to Efficacy between 100 and 50)	> 6.00
COc1ccc(C(C)C)cc1-c1cc(C(N)=O)nc(N2CCCCC2)n1 [Compound 224]	+ (+ corresponds to Efficacy less than 50)	< 5.30
COc1ccccc1-c1cc(C(N)=O)nc(N(C)C)n1 [Compound 208]	+ (+ corresponds to Efficacy less than 50)	< 5.30
NC(=O)c1cc(-c2ccccc2)nc(-n2cccn2)n1 [Compound 57]	+ (+ corresponds to Efficacy less than 50)	< 5.30
COc1ccc(S(=O)(=O)N2CCN(c3nc(C(N)=O)cc(-c4ccccc4)n3)CC2)cc1 [Compound 195]	++ (++ corresponds to Efficacy between 100 and 50)	< 5.30
NC(=O)c1cc(-c2ccccc2)nc(N2CCC(n3c(=O)[nH]c4ccccc43)CC2)n1 [Compound 139]	++ (++ corresponds to Efficacy between 100 and 50)	< 5.30
CCN(CC)c1nc(C(N)=O)cc(-c2ccccc2C)n1 [Compound 61]	++ (++ corresponds to Efficacy between 100 and 50)	5.30 to 6.00
NC(=O)c1cc(-c2ccc3c(c2)OCO3)nc(N2CCCCC2)n1 [Compound 227]	++ (++ corresponds to Efficacy between 100 and 50)	< 5.30
NC(=O)c1cc(-c2ccccc2)nc(N2CCCCC2)n1 [Compound 16]	++ (++ corresponds to Efficacy between 100 and 50)	5.30 to 6.00
CCN(CC)c1nc(C(N)=O)cc(-c2cccc(C)c2C)n1 [Compound 120]	++ (++ corresponds to Efficacy between 100 and 50)	> 6.00
CCNC(=O)c1cc(-c2ccccc2)nc(N(CC)CC)n1 [Compound 91]	+++ (+++ corresponds to Efficacy greater than 100)	5.30 to 6.00
CCNc1nc(C(N)=O)cc(-c2ccc(OC)cc2)n1 [Compound 102]	++ (++ corresponds to Efficacy between 100 and 50)	< 5.30
NC(=O)c1cc(-c2ccccc2)nc(N2CC=CCC2)n1 [Compound 46]	+++ (+++ corresponds to Efficacy greater than 100)	5.30 to 6.00
